Publication PMC10222512, “Thiocarbonyl Derivatives of Natural Chlorins: Synthesis Using Lawesson’s Reagent and a Study of Their Properties” (Molecules, 2023)
Entries after “also recorded” stand apart in the source; their conditions may differ.

Tests used:
[1] = Chemical stability in 4% aqueous micellar solution of Kolliphor ELP (absorption band intensity vs time); type: physicochemical
Text: The stability of pyropheophorbide a 13^1-thioketone (6) in 4% aqueous micellar solution of Kolliphor ELP over time was studied at a neutral pH by monitoring the variation in the Q2 band intensity in the absorption spectra of the sample.
At the next step, we studied the chemical stability of complex 7 obtained in Kolliphor ELP aqueous micellar solutions vs. time at various pH values based on the variation in the intensity of the Qy band in the EAS of the samples (Figure 4).
A solution of compounds (4) or (7) in dichloromethane (1–2 mL) was added dropwise with continuous argon bubbling to a freshly prepared 4% aqueous solution of Kolliphor ® ELP (5 mL) heated to 45 °C. Bubbling was continued until strong foaming started. A clear dark-red solution with a concentration of 0.25 mg/mL was obtained, which was then successively filtered through a 0.45 µm PTFE filter and a 0.22 µm PTFE filter. The concentrations of the resulting micellar solutions were monitored spectrophotometrically.

[2] = Chemical stability in cell culture medium at different pH (Qy band intensity); type: physicochemical
Procedure: (§1) The chemical stability of compounds 4 and 7 was also studied in the lysate of S37 sarcoma cells (pH = 7.8), as well as in the cell culture medium at different pH values. The stability was assessed by the change in the intensity of the Qy bands as described above.

[3] = Chemical stability in lysate of S37 sarcoma cells (Qy band intensity); type: physicochemical; conditions: Cell lysate S37 (pH = 7.8)
Procedure: as §1

[4] = tested on: S37 murine sarcoma cell line; test: Dark cytotoxicity, MTT assay; type: cell-based
Procedure: (§2) To estimate cytotoxicity, cells were incubated with the substances for 72 h under dark conditions in a CO2 incubator.
(§3) Cell survival was estimated using the colorimetric MTT test (24 and 72 h after exposure), which is based on the ability of dehydrogenases in living cells to convert yellow water-soluble 3-(4-5-dimethyl-tetrazolyl-2)-2,5-diphenyltetrazolium bromide to blue crystals of formazan, whose amount is measured spectrophotometrically.

[5] = tested on: S37 murine sarcoma cell line; test: Photoinduced (combined) cytotoxicity, MTT assay after irradiation; type: cell-based; conditions: S37 cells; for IC50: 4 h PS incubation
Procedure: To estimate the combined effect (photoinduced and chemocytotoxic) of compound (4) and platinum complex (7), a two-step experiment was designed: incubation of cells with PS for 4 h and irradiation and subsequent incubation for 48 or 72 h followed by estimation of cell survival by the MTT assay.
The S37 murine sarcoma cell line (collection of the N.N. Blokhin Research Institute of Oncology) was used to estimate photoinduced activity and cytotoxicity.
Cells were cultured in DMEM medium (PanEco, Russia) with addition of 2 mM L-glutamine (PanEco, Moscow, Russia) and 10% fetal calf blood serum (FCS) (Corning, New York, NY, USA) in 25 cm^2 culture vials (Corning, USA) at 37 °C in a humid atmosphere containing 5% carbon dioxide. Upon passivation, the Versene solution (PanEco, Russia) was used to remove the cells from the substrate. For in vitro studies, cells of the 3rd and 4th passages were used with an optimal seeding concentration of 6 × 10^4 cells/mL.
The concentrations of the solutions obtained were 0.6 mg/mL for compound (4) and 0.1 mg/mL for compound (7). All the volumes obtained were filtered through a Millipore membrane filter with a pore size of 0.22 μm. Next, the samples were diluted in 24-well plates (Corning, USA) on the cell-culturing medium. The final concentration of the substances ranged from 32 ng/mL to 20 μg/mL.
To perform the experiments, S37 tumor cells were seeded into 96-well plates in the amount of 6 × 10^3 cells per well in a 100 μL volume. Exposure was performed in the exponential phase of cell growth 24 h after seeding. Solutions of compounds in the complete culture medium were added to the wells at final concentrations of 32 ng/mL to 20 μg/mL, in triplicate. The time of cell incubation with compounds before irradiation was 4 h. The culture medium was used as the blank. Light exposure was performed with a halogen lamp through a KS-10 broadband filter (λ > 620 nm). The light dose was 10 J/cm^2. After light exposure, the plates with cells were placed in a CO2 incubator for 24, 48, or 72 h.
Cell survival was estimated using the colorimetric MTT test (24 and 72 h after exposure), which is based on the ability of dehydrogenases in living cells to convert yellow water-soluble 3-(4-5-dimethyl-[…]-2)-2,5-diphenyltetrazolium bromide to blue crystals of formazan, whose amount is measured spectrophotometrically.
Before the test, cells were washed from cytotoxic agents. Then, 0.5% solution of 3-(4,5-dimethylthiazolyl-2)-2,5-diphenyltetrazolium bromide was added to the wells and the system was incubated for 3 h under standard conditions. After incubation, the medium with the MTT-reagent was removed and formazan crystals were dissolved for 10 min with dimethyl sulfoxide. Optical density was measured on a Multiscan FC multichannel plate photometer (Thermo scientific) at 550 nm.
The growth inhibition (GI) of cells in a culture was calculated using the following formula:GI(%) = [ODk − ODo/ODk)] × 100%, where ODo is the optical density of formazan in the test wells and ODk is the optical density of formazan in the control wells.
Quantitative parameters were calculated using the results of three independent tests.

[6] = UV-Vis absorption and fluorescence spectra; type: physicochemical; conditions: dichloromethane; for fluorescence maximum: excitation at 550 nm
Procedure: Because the pigments noted above are photoactive compounds, it was important to determine the effect of the sulfur atom on their spectral characteristics.
Absorption and fluorescence spectra were recorded on Shimadzu UV1800 UV/VIS (Shimadzu, Duisburg, Germany) and Shimadzu RF-5301 (Shimadzu, Duisburg, Germany) spectrophotometers in quartz cells (0.4 × 1.0 cm) with an optical path length of 1 cm (spectral slit width 1 nm), using dichloromethane, acetone, and water as the solvents. Absorption spectra were recorded in the range of 350–750 nm. Fluorescence spectra were recorded in the range of 600–800 nm (excitation wavelength 550 nm), using dichloromethane, acetone, and water as the solvents. The fluorescence quantum yield was determined by the relative method. A solution of purpurin-18 in toluene was used as the standard. Both ^1H and ^13C NMR spectra were recorded on a Bruker DPX 300 spectrometer (Bruker, Alzenau, Germany). NMR samples were prepared in d6-acetone and CDCl3. Matrix-assisted laser desorption/ionization (MALDI) mass spectra were recorded on a Bruker Ultraflex TOF/TOF spectrometer (Bruker, Alzenau, Germany), with 2,5-dihydroxybenzoic acid as the matrix. Elemental analysis was performed on a Vario Micro Cube analyzer (Elementar, Berlin, Germany).

[7] = Dark cytotoxicity, MTT assay; type: cell-based, murine; conditions: mouse, S37 murine sarcoma cells; S37 cells; 72 h incubation of compounds with cells, no irradiation, MTT
Procedure: as §2, §3

C=Cc1c(C)c2cc3nc(c4c5[nH]c(cc6nc(cc1[nH]2)C(C)=C6CC)c(C)c5C(=[S+][Pt-2]([NH3+])([NH3+])[Cl])C4)[C@@H](CCC(=O)OC)[C@@H]3C.O=[N+]([O-])[O-] (some centres unmarked) [Compound 7, Platinum Complex of Pyropheophorbide a 13^1-Thioketone]
chemical stability (Qy band) ([1]; Kolliphor ELP micellar solution, acid, pH = 4): hypsochromic shift in the Qy band to the 666 nm region | chemical stability (Qy band intensity) ([1]; Kolliphor ELP micellar solution, alkaline, pH = 9): a precipitate formed and the intensity of the Qy absorption band decreased | chemical stability (Qy band intensity) ([1]; Kolliphor ELP micellar solution, pH = 7): remained stable for 24 h | Content, % ([2]; pH 4, 0 min): 100% | Intensity at 675 nm ([2]; pH 4, 0 min): 0.913 | Content, % ([2]; pH 4, 4 h): 25% | Intensity at 675 nm ([2]; pH 4, 4 h): 0.2282 | Content, % ([2]; pH 4, 24 h): 17% | Intensity at 675 nm ([2]; pH 4, 24 h): 0.1552 | Content, % ([2]; pH 4, 72 h): 11% | Intensity at 675 nm ([2]; pH 4, 72 h): 0.1004 | Content, % ([2]; pH 7, 0 min): 100% | Intensity at 675 nm ([2]; pH 7, 0 min): 0.913 | Content, % ([2]; pH 7, 4 h): 97% | Intensity at 675 nm ([2]; pH 7, 4 h): 0.8856 | Content, % ([2]; pH 7, 24 h): 94% | Intensity at 675 nm ([2]; pH 7, 24 h): 0.8582 | Content, % ([2]; pH 7, 72 h): 91% | Intensity at 675 nm ([2]; pH 7, 72 h): 0.833 | Content, % ([2]; pH 9, 0 min): 100% | Intensity at 675 nm ([2]; pH 9, 0 min): 0.913 | Content, % ([2]; pH 9, 4 h): 87% | Intensity at 675 nm ([2]; pH 9, 4 h): 0.7943 | Content, % ([2]; pH 9, 24 h): 75% | Intensity at 675 nm ([2]; pH 9, 24 h): 0.6847 | Content, % ([2]; pH 9, 72 h): 65% | Intensity at 675 nm ([2]; pH 9, 72 h): 0.5277 | Content, % ([3]; 0 min): 100% | Intensity at 675 nm ([3]; 0 min): 0.913 | Content, % ([3]; 4 h): 89% | Intensity at 675 nm ([3]; 4 h): 0.8126 | Content, % ([3]; 24 h): 84% | Intensity at 675 nm ([3]; 24 h): 0.7669 | Content, % ([3]; 72 h): 79% | Intensity at 675 nm ([3]; 72 h): 0.7213 | IC50 ([4]; S37 cells, 72 h incubation of compounds with cells, no irradiation, MTT): 271 ± 7 nM | IC50 ([5]; irradiation at 10 J/cm^2, MTT after 24 h, read-out: IC50, Photoinduced cytotoxicity): 478 ± 9 nM | IC50 ([5]; irradiation at 10 J/cm^2, MTT after 48 h, read-out: IC50, Combined cytotoxicity): 146 ± 7 nM | IC50 ([5]; irradiation at 10 J/cm^2, MTT after 72 h, read-out: IC50, Combined cytotoxicity): 98 ± 5 nM | increase of photocytotoxicity on increasing incubation time after irradiation ([5]; from 24 h to 72 h after irradiation): 5 fold

C=Cc1c(C)c2cc3nc(c4c5[nH]c(cc6nc(cc1[nH]2)C(C)=C6CC)c(C)c5C(=S)C4C(=O)OC)[C@@H](CCC(=O)OC)[C@@H]3C (some centres unmarked) [Compound 5]
long-wave absorption maximum (Q2 band) [6]: 706 nm | fluorescence maximum [6]: 719 nm

C=Cc1c(C)c2cc3nc(c4c5[nH]c(cc6nc(cc1[nH]2)C(C)=C6CC)c(C)c5C(=S)C4)[C@@H](CCC(=O)OC)[C@@H]3C [Compound 6, Pyropheophorbide a 13^1-Thioketone]
decrease of Q2 band ([1]; 4% Kolliphor ELP micellar solution, neutral pH, after 3 h): more than 50% | conversion of thioketone to pyropheophorbide a (4) ([1]; 4% Kolliphor ELP micellar solution, neutral pH, after 24 h): completely converted | long-wave absorption maximum (Q2 band) [6]: 708 nm | fluorescence maximum [6]: 723 nm

Pheophorbide a [Compound 3, reference compound]
long-wave absorption maximum (Q2 band) [6]: 666 nm | fluorescence maximum [6]: 680 nm

C=Cc1c(C)c2cc3nc(c4c5[nH]c(cc6nc(cc1[nH]2)C(C)=C6CC)c(C)c5C(=O)C4)[C@@H](CCC(=O)OC)[C@@H]3C [Compound 4, pyropheophorbide a methyl ester, reference compound]
Content, % ([2]; pH 4, 0 min): 100% | Intensity at 666 nm ([2]; pH 4, 0 min): 0.9538 | Content, % ([2]; pH 4, 4 h): 70% | Intensity at 666 nm ([2]; pH 4, 4 h): 0.6677 | Content, % ([2]; pH 4, 24 h): 60% | Intensity at 666 nm ([2]; pH 4, 24 h): 0.5723 | Content, % ([2]; pH 4, 72 h): 58% | Intensity at 666 nm ([2]; pH 4, 72 h): 0.5532 | Content, % ([2]; pH 7, 0 min): 100% | Intensity at 666 nm ([2]; pH 7, 0 min): 0.9538 | Content, % ([2]; pH 7, 4 h): 93% | Intensity at 666 nm ([2]; pH 7, 4 h): 0.887 | Content, % ([2]; pH 7, 24 h): 87% | Intensity at 666 nm ([2]; pH 7, 24 h): 0.8298 | Content, % ([2]; pH 7, 72 h): 79% | Intensity at 666 nm ([2]; pH 7, 72 h): 0.7535 | Content, % ([2]; pH 9, 0 min): 100% | Intensity at 666 nm ([2]; pH 9, 0 min): 0.9538 | Content, % ([2]; pH 9, 4 h): 85% | Intensity at 666 nm ([2]; pH 9, 4 h): 0.8107 | Content, % ([2]; pH 9, 24 h): 78% | Intensity at 666 nm ([2]; pH 9, 24 h): 0.744 | Intensity at 666 nm ([2]; pH 9, 72 h): 0.7058 | fluorescence maximum [6]: 684 nm | Content, % ([3]; 0 min): 100% | Intensity at 666 nm ([3]; 0 min): 0.9538 | Content, % ([3]; 4 h): 91% | Intensity at 666 nm ([3]; 4 h): 0.8679 | Content, % ([3]; 24 h): 82% | Intensity at 666 nm ([3]; 24 h): 0.7821 | Content, % ([3]; 72 h): 76% | Intensity at 666 nm ([3]; 72 h): 0.7249 | IC50 at 72 h [7]: > 36400 nM | cytotoxic effect without light irradiation (in words) ([4]; S37 sarcoma cells, 72 h incubation, dark): no cytotoxic effect on cells; also recorded: does not have a pronounced cytotoxicity | IC50 ([5]; Mus musculus, S37, light or radiation study, irradiation at 10 J/cm^2, MTT after 24 h, read-out: IC50, Photoinduced cytotoxicity): 4198 ± 13 nM | IC50 ([5]; Mus musculus, S37, light or radiation study, irradiation at 10 J/cm^2, MTT after 48 h, read-out: IC50, Combined cytotoxicity): 4076 ± 11 nM | IC50 ([5]; Mus musculus, S37, light or radiation study, irradiation at 10 J/cm^2, MTT after 72 h, read-out: IC50, Combined cytotoxicity): 4023 ± 13 nM | photoinduced activity, times lower than that of the platinum complex ([5]; versus platinum complex 7): 8.8 times
